Test results taken from patent US20260185163A1, “MEN1 MUTATIONS AND USES THEREOF” (DANA-FARBER CANCER INSTITUTE, INC., priority 2022, published 2026).

Tests used:
[1] = test system: MEN1 M327I/M327I MV4;11 cells; test: dose-response assay, viable cell counts by flow cytometry; assay type: cell-based; settings: Homo sapiens, 240 h; MV4;11 MEN1 M327I/M327I, 10 d of treatment
Protocol: MV4;11 and OCI-AML3 cell lines were passaged 24 h prior to nucleofection. The guide RNA (150 μmol) (sequence: 5′-[…]-3′) was added to Alt-R S.p. HiFi Cas9 nuclease (Integrated DNA Technologies) (125 μmol) followed by an incubation at room temperature (RT) for 20 min to allow formation of ribonucleoprotein (RNP) complexes. 2×10^5 cells were sedimented at 200 g for 10 min at RT, washed with PBS and resuspended in the SG Cell Line Nucleofector™ Solution (Lonza). […] Cells were replated in fresh medium+drug every 3 days and viable cells were counted using the LSRFortessa™ (BD Biosciences) flow cytometer. Cumulative cell growth was calculated over 28 days. […]
To determine Menin-inhibitor responses of MOLM13, MV4;11 or OCI-AML3 cell lines expressing MEN1 mutants, 3×10^3 cells were plated per well in a non-tissue culture treated 96-well plate. […] After 6 days, cells were split 1:7 and counts of viable cells in each well were determined after 10 d of treatment by flow cytometry (LSRFortessa™ with High-throughput sampler (HTS), BD Biosciences). Relative cell counts were calculated as % of DMSO control. The average of each triplicate was calculated and the mean of all replicates was plotted. […]

[2] = test system: MEN1 M327I/WT MV4;11 cell lines; test: as above; assay type: cell-based, human; settings: MV4;11 MEN1 M327I/WT
Protocol: MV4;11 and OCI-AML3 cell lines were passaged 24 h prior to nucleofection. The guide RNA (150 μmol) (sequence: 5′-[…]-3′) was added to Alt-R S.p. HiFi Cas9 nuclease (Integrated DNA Technologies) (125 μmol) followed by an incubation at room temperature (RT) for 20 min to allow formation of ribonucleoprotein (RNP) complexes. 2×10^5 cells were sedimented at 200 g for 10 min at RT, washed with PBS and resuspended in the SG Cell Line Nucleofector™ Solution (Lonza). Cells, Alt-R™ Cas9 Electroporation Enhancer (Lonza) (120 μmol) and the HDR donor oligonucleotide containing the MEN1-M327I mutation as well as a silent mutation at the protospacer adjacent motif (PAM) site (120 μmol) (sequence:5′-[…]-3′) were added to the RNP complex. For wildtype (WT) control, phosphate buffered saline (PBS) (Gibco™, Fisher Scientific) was added to the resuspended cells. Nucleofection was performed using a 16-well 20 μl Nucleocuvette™ stripe (Lonza) in a 4D-Nucleofector™ X Unit (Lonza) (program FF-100). Cells were incubated overnight in RPMI-1640+10% FCS+1% P/S containing 1 μM Alt-R™ HDR enhancer V2 (Lonza) (or DMSO for WT control). The following day, the medium was replaced by RPMI-1640+10% FBS+1% P/S. Single clones were selected in methylcellulose (MethoCult™ M3234, Stemcell™ Technologies) supplemented with 10% RPMI-1640, 10% FBS, 1% P/S and 25 nM SNDX-5613 (or DMSO for WT control), starting 3 days after nucleofection, and expanded in RPMI-1640+10% FCS+1% P/S supplemented with 25 nM SNDX-5613 (or DMSO for WT control). For the in vitro clonal selection assay of bulk nucleofected cells over time, 5×10^3 cells (3 replicates per condition) were seeded in RPMI-1640+10% FBS+1% P/S supplemented with 50 nM SNDX-5613 (or DMSO for WT control) 3 days after nucleofection. Cells were replated in fresh medium+drug every 3 days and viable cells were counted using the LSRFortessa™ (BD Biosciences) flow cytometer. Cumulative cell growth was calculated over 28 days. At each timepoint, cell pellets were frozen and genomic DNA was extracted subsequently using the DNeasy Blood and Tissue Kit™ (QIAGEN). Digital droplet-based PCR was performed from the genomic DNA to assess editing efficiency in the bulk cells over time. To analyze HDR efficiency in single cell clones, genomic DNA was PCR amplified using the Q5 High-Fidelity 2× Master Mix™ (New England BioLabs) and primers (forward: 5′-[…]-3′; reverse: 5′-[…]-3′), and the resulting 641 bp fragment containing the Cas9 cut site was gel-purified using the QIAquick Gel Extraction Kit™ (QIAGEN). Sanger sequencing was used to analyze HDR efficiency (primer 5′-[…]-3′).
To determine Menin-inhibitor responses of MOLM13, MV4;11 or OCI-AML3 cell lines expressing MEN1 mutants, 3×10^3 cells were plated per well in a non-tissue culture treated 96-well plate. The Menin-inhibitors were titrated on these cells in the following dose-range: DMSO, 3.9 nM, 7.813 nM, 15.625 nM, […], 62.5 nM, 125 nM, 250 nM, 500 nM, 1000 nM. Cells were treated in triplicates on each plate and the experiment was repeated 4 times. After 6 days, cells were split 1:7 and counts of viable cells in each well were determined after 10 d of treatment by flow cytometry (LSRFortessa™ with High-throughput sampler (HTS), BD Biosciences). Relative cell counts were calculated as % of DMSO control. The average of each triplicate was calculated and the mean of all replicates was plotted. Error bars represent the standard error of means (SEM).

[3] = test system: CRISPR-Cas9 M327I-edited MV4;11 and OCI-AML3 cells; test: in vitro clonal selection assay, growth of bulk cell populations; assay type: cell-based, human; settings: 50 nM
Protocol: (§1) MV4;11 and OCI-AML3 cell lines were passaged 24 h prior to nucleofection. The guide RNA (150 μmol) (sequence: 5′-[…]-3′) was added to Alt-R S.p. HiFi Cas9 nuclease (Integrated DNA Technologies) (125 μmol) followed by an incubation at room temperature (RT) for 20 min to allow formation of ribonucleoprotein (RNP) complexes. 2×10^5 cells were sedimented at 200 g for 10 min at RT, washed with PBS and resuspended in the SG Cell Line Nucleofector™ Solution (Lonza). Cells, Alt-R™ Cas9 Electroporation Enhancer (Lonza) (120 μmol) and the HDR donor oligonucleotide containing the MEN1-M327I mutation as well as a silent mutation at the protospacer adjacent motif (PAM) site (120 μmol) (sequence:5′-[…]-3′) were added to the RNP complex. For wildtype (WT) control, phosphate buffered saline (PBS) (Gibco™, Fisher Scientific) was added to the resuspended cells. Nucleofection was performed using a 16-well 20 μl Nucleocuvette™ stripe (Lonza) in a 4D-Nucleofector™ X Unit (Lonza) (program FF-100). Cells were incubated overnight in RPMI-1640+10% FCS+1% P/S containing 1 μM Alt-R™ HDR enhancer V2 (Lonza) (or DMSO for WT control). […] Cells were replated in fresh medium+drug every 3 days and viable cells were counted using the LSRFortessa™ (BD Biosciences) flow cytometer. Cumulative cell growth was calculated over 28 days. […]

[4] = test system: unedited MV4;11 and OCI-AML3 cells; test: as above; assay type: cell-based, human; settings: 50 nM
Protocol: as §1

[5] = test system: Menin on chromatin in MV4;11 MEN1 M327I/M327I cells; test: ChIP-Seq of Menin chromatin occupancy; assay type: cell-based, human; settings: 5 μM, M327I mutant
Protocol: (§2) Cells were sequentially cross-linked using 2 mM DSG disuccinimidyl glutarate for 30 min and a final concentration of 1% formaldehyde for 10 min at room temperature (20-25° C.) and stopped with 125 mM glycine. Cells were lysed in lysis buffer (20 mM Tris-HCl at pH 7.5. 300 mM NaCl, 2 mM EDTA, 0.5% NP40, 1% Triton X-100, 1 mM PMSF, PIC) and incubated on ice for 30 min. The resuspended cells were then dounced in an ice-cold homogenizer. Nuclear pellets were collected and resuspended in shearing buffer (0.1% SDS, 0.5% N-lauroylsarcosine, 1% Triton X-100, 10 mM Tris-HCl at pH 8.1, 100 mM NaCl, 1 mM EDTA. 1 mM PMSF, PIC). Isolated chromatin was fragmented to an average size of 200-600 bp with a bioruptor (Diagenode). Precleared chromatin was immunoprecipitated overnight at 4° C. and immunocomplexes were collected with protein A Dynabeads. […] Reads were aligned to human GRCh38/hg38 genome using STAR 2.7.5. Aligned BAM files were sorted, duplicate reads marked and removed, and deduplicated BAMs indexed using Broad picard tools v2.9.4. Signal intensities around transcription start sites (TSS, +/−3000 bp) were quantified using BEDtools (v. 2.28.0) and data visualizations were produced using IGVtools (TDF signal pileups; v2.3.75) and ngs.plot (pileup heatmaps/torpedo plots). […]

[6] = test system: Menin on chromatin in MV4;11 MEN1-WT cells; test: ChIP-Seq of Menin chromatin occupancy; assay type: cell-based, human; settings: 100 nM
Protocol: as §2

In the case of `CCN(C(=O)c1cc(F)ccc1Oc1cncnc1N1CC2(CCN(C[C@H]3CC[C@H](NS(=O)(=O)CC)CC3)CC2)C1)C(C)C` [SNDX-5613, revumenib], the IC50 [1] is reported as greater than 1 µM, the “increase of IC50 compared to MEN1-wild-type cells” value [2] is reported as 16 fold and the cell growth [3] is reported as “continued growing beyond 28 days”. For the same molecule, the cell growth [4] was “stopped dividing shortly after exposure”, the Menin chromatin occupancy [5] was “partial decrease in Menin chromatin occupancy” and the “displacement of Menin from chromatin” value [6] was “near-complete and global displacement of Menin from chromatin”.
